Source: ChEMBL document CHEMBL5518220, “The Discovery of 7-Isopropoxy-2-(1-methyl-2-oxabicyclo[2.1.1]hexan-4-yl)-N-(6-methylpyrazolo[1,5-a]pyrimidin-3-yl)imidazo[1,2-a]pyrimidine-6-carboxamide (BIO-7488), a Potent, Selective, and CNS-Penetrant IRAK4 Inhibitor for the Treatment of Ischemic Stroke” (J Med Chem, 2024)

Assays:
[1] = Tmax in dog at 1 mg/kg, po by LC-MS/MS analysis; assay type: ADME, organism-based, Canis lupus familiaris; conditions: in vivo
[2] = AUCinfinity in mouse at 1 mg/kg, iv by LC-MS/MS analysis; assay type: ADME, organism-based; conditions: in vivo
[3] = Oral bioavailability in dog at 1 mg/kg by LC-MS/MS analysis; assay type: ADME, organism-based, Canis lupus familiaris; conditions: in vivo
[4] = Unbound clearance in mouse at 1 mg/kg, iv by LC-MS/MS analysis; assay type: ADME, organism-based; conditions: in vivo
[5] = Volume of distribution at steady state in dog at 1 mg/kg, iv by LC-MS/MS analysis; assay type: ADME, organism-based, Canis lupus familiaris; conditions: in vivo, read-out: Vdss
[6] = target: T1, Dual specificity mitogen-activated protein kinase kinase 5 (Homo sapiens) (UniProt Q13163); experiment: Binding affinity to MEK5 (unknown origin) at 100 to 1000 nM relative to control; conditions: dose 100-1000 nM
T1 sequence (whole entry): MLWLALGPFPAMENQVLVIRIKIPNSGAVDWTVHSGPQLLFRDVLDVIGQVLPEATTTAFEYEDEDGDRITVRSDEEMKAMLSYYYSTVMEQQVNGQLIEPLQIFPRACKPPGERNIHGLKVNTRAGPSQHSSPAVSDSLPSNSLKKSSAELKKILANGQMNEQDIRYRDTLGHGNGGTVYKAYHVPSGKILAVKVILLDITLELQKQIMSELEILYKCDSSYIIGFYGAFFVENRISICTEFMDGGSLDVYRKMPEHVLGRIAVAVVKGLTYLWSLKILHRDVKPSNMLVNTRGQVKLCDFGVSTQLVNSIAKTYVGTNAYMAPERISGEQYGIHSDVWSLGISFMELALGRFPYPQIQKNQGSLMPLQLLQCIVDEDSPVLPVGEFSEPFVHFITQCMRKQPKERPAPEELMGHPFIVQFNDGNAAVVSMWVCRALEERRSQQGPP

[7] = Lipophilicity, logD of compound in n-octanol and aqueous buffer at pH 7.4 by RP-HPLC method; assay type: physicochemical
[8] = Oral bioavailability in rat at 1 mg/kg by LC-MS/MS analysis; assay type: ADME, organism-based; conditions: in vivo
[9] = Half life in cynomolgus monkey at 1 mg/kg, iv by LC-MS/MS analysis; assay type: ADME, organism-based, Macaca fascicularis; conditions: in vivo
[10] = Tmax in rat at 1 mg/kg, po by LC-MS/MS analysis; assay type: ADME, organism-based; conditions: in vivo
[11] = Half life in mouse at 1 mg/kg, iv by LC-MS/MS analysis; assay type: ADME, organism-based; conditions: in vivo
[12] = Volume of distribution at steady state in mouse at 1 mg/kg, iv by LC-MS/MS analysis; assay type: ADME, organism-based; conditions: in vivo, read-out: Vdss
[13] = Clearance in cynomolgus monkey at 1 mg/kg, iv by LC-MS/MS analysis; assay type: ADME, organism-based, Macaca fascicularis; conditions: in vivo
[14] = Metabolic stability in human liver microsomes assessed as intrinsic clearance; assay type: ADME, Microsome; conditions: read-out: CLH
Mus musculus [15] = experiment: Inhibition of LPS-induced TNF-alpha production in po dosed female C57BL/6 mouse assessed as reduction in TNF-alpha level in plasma administered via oral gavage for 60 mins followed by LPS stimulation at 0.5 mg/kg, ip measured after 90 mins by ELISA; assay type: functional, organism-based
[16] = Tmax in cynomolgus monkey at 1 mg/kg, po by LC-MS/MS analysis; assay type: ADME, organism-based, Macaca fascicularis; conditions: in vivo
[17] = Volume of distribution at steady state in cynomolgus monkey at 1 mg/kg, iv by LC-MS/MS analysis; assay type: ADME, organism-based, Macaca fascicularis; conditions: in vivo, read-out: Vdss
[18] = Tmax in mouse at 1 mg/kg, po by LC-MS/MS analysis; assay type: ADME, organism-based; conditions: in vivo
[19] = Metabolic stability in human hepatocytes assessed as intrinsic clearance; assay type: ADME, cell-based, Hepatocyte; conditions: read-out: CLH
[20] = Volume of distribution at steady state in rat at 1 mg/kg, iv by LC-MS/MS analysis; assay type: ADME, organism-based; conditions: in vivo, read-out: Vdss
Mus musculus [21] = experiment: Inhibition of LPS-induced IL-6 production in po dosed female C57BL/6 mouse assessed as reduction in IL-6 level in plasma administered via oral gavage for 60 mins followed by LPS stimulation at 0.5 mg/kg, ip measured after 90 mins by ELISA; assay type: functional, organism-based
[22] = AUCinfinity in dog at 1 mg/kg, iv by LC-MS/MS analysis; assay type: ADME, organism-based, Canis lupus familiaris; conditions: in vivo
Mus musculus [23] = experiment: Inhibition of LPS-induced IL-1beta production in po dosed female C57BL/6 mouse assessed as reduction in IL-1beta level in plasma administered via oral gavage for 60 mins followed by LPS stimulation at 0.5 mg/kg, ip measured after 90 mins by ELISA; assay type: functional, organism-based
[24] = Oral bioavailability in mouse at 1 mg/kg by LC-MS/MS analysis; assay type: ADME, organism-based; conditions: in vivo
[25] = Inhibition of […] induced IL-1beta production in human whole blood preincubated for 1 hr followed by R848 stimulation and measured after 4 hrs by MSD assay; assay type: functional, tissue-based
[26] = Clearance in mouse at 1 mg/kg, iv by LC-MS/MS analysis; assay type: ADME, organism-based; conditions: in vivo
[27] = Clearance in rat at 1 mg/kg, iv by LC-MS/MS analysis; assay type: ADME, organism-based; conditions: in vivo
[28] = Oral bioavailability in cynomolgus monkey at 1 mg/kg by LC-MS/MS analysis; assay type: ADME, organism-based, Macaca fascicularis; conditions: in vivo
[29] = Half life in dog at 1 mg/kg, iv by LC-MS/MS analysis; assay type: ADME, organism-based, Canis lupus familiaris; conditions: in vivo
[30] = Clearance in dog at 1 mg/kg, iv by LC-MS/MS analysis; assay type: ADME, organism-based, Canis lupus familiaris; conditions: in vivo
[31] = Unbound clearance in dog at 1 mg/kg, iv by LC-MS/MS analysis; assay type: ADME, organism-based, Canis lupus familiaris; conditions: in vivo
[32] = Half life in rat at 1 mg/kg, iv by LC-MS/MS analysis; assay type: ADME, organism-based; conditions: in vivo
[33] = AUCinfinity in rat at 1 mg/kg, iv by LC-MS/MS analysis; assay type: ADME, organism-based; conditions: in vivo
[34] = Free drug level in male C57BL/6 mouse plasma at 10 mg/kg, po qd measured on 3 to 7 days; assay type: ADME, organism-based; conditions: in vivo, time 3-7 day
[35] = Unbound clearance in cynomolgus monkey at 1 mg/kg, iv by LC-MS/MS analysis; assay type: ADME, organism-based, Macaca fascicularis; conditions: in vivo
[36] = Unbound clearance in rat at 1 mg/kg, iv by LC-MS/MS analysis; assay type: ADME, organism-based; conditions: in vivo
[37] = AUCinfinity in cynomolgus monkey at 1 mg/kg, iv by LC-MS/MS analysis; assay type: ADME, organism-based, Macaca fascicularis; conditions: in vivo
[38] = Metabolic stability in rat liver microsomes assessed as intrinsic clearance; assay type: ADME, Microsome; conditions: read-out: CLH
MDR1 (P-gp) = experiment: Efflux ratio of apparent permeability across basolateral to apical side over apical to basolateral side in MDCK-MDR1 cells at 1 uM incubated for 120 mins by LC-MS/MS analysis; assay type: ADME, cell-based, Canis lupus familiaris; conditions: dog
[39] = Unbound brain-to-plasma concentration ratio in iv dosed rat measured at 4 to 24 hrs by LC-MS/MS analysis; assay type: ADME, organism-based; conditions: brain and plasma, time 4-24 hrs, read-out: K(p,uu,brain)
[40] = target: T2, Interleukin-1 receptor-associated kinase 4 (Homo sapiens, UniProt Q9NWZ3)
T2 sequence (Q9NWZ3 whole entry): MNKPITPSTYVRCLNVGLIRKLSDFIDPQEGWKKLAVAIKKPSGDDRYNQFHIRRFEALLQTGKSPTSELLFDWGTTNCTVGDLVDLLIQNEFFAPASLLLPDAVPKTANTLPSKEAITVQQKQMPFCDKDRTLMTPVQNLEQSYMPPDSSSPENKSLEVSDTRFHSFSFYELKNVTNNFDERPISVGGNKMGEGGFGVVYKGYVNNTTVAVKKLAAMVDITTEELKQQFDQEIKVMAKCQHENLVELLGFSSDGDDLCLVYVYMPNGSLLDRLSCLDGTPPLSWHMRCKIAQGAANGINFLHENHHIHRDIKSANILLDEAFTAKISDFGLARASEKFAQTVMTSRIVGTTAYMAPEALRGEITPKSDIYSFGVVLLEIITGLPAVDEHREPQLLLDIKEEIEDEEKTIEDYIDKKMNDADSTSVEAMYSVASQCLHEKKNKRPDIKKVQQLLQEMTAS

[41] = Drug metabolism in human liver microsomes assessed as oxidative metabolism at methyl-THF moiety at 10 uM incubated for 60 mins by LC-MS/MS analysis; assay type: ADME, Microsome; conditions: 1 h
[42] = Drug metabolism in male Sprague-Dawley rat liver microsomes assessed as oxidative metabolism at methyl-THF moiety at 10 uM incubated for 60 mins by LC-MS/MS analysis; assay type: ADME, Microsome; conditions: 1 h

SMILES: Cc1cnc2c(NC(=O)c3cn4cc(C56COC(C)(C5)C6)nc4nc3OC(C)C)cnn2c1
- Tmax [1]: 2.6 h
- AUC(0-inf) [2]: 9460 ng·h/mL
- bioavailability [3]: 96%
- CL free [4]: 19 mL/min/kg
- Vd [5]: 2.8 L/kg
- Activity [6]: > 80%
- logD [7]: 2.9
- bioavailability [8]: 91%
- half-life [9]: 8.3 h
- Tmax [10]: 4.7 h
- half-life [11]: 5 h
- Vd [12]: 0.75 L/kg
- clearance [13]: 2.7 mL/min/kg
- CLint scaled [14]: < 5 mL/min/kg
- inhibition (Mus musculus [15]): Dose-Dependent Effect
- Tmax [16]: 2 h
- Vd [17]: 1.7 L/kg
- Tmax [18]: 1 h
- CLint scaled [19]: 2.5 mL/min/kg
- Vd [20]: 2.2 L/kg
- inhibition (Mus musculus [21]): Dose-Dependent Effect
- AUC(0-inf) [22]: 3190 ng·h/mL
- inhibition (Mus musculus [23]): Dose-Dependent Effect
- bioavailability [24]: 98%
- IC50 ([25]; Homo sapiens, Blood): 200 nM
- fIC50 ([25]; time 5 hrs): 13 nM
- clearance [26]: 1.8 mL/min/kg
- clearance [27]: 2.1 mL/min/kg
- bioavailability [28]: 95%
- half-life [29]: 10 h
- clearance [30]: 3.5 mL/min/kg
- CL free [31]: 5.3 mL/min/kg
- half-life [32]: 12 h
- AUC(0-inf) [33]: 6530 ng·h/mL
- Cp(f) [34]: 10 nM
- CL free [35]: 14 mL/min/kg
- CL free [36]: 30 mL/min/kg
- AUC(0-inf) [37]: 6440 ng·h/mL

SMILES: CCOc1cc2nc(C[C@@H]3CCOC3)cn2cc1NC(=O)c1cccc(C(F)F)n1
- CLint scaled [14]: 62 mL/min/kg
- CLint scaled [38]: 171 mL/min/kg
- efflux ratio at 2 h, 1 µM (MDR1 (P-gp)): 1.5
- Kp uu [39]: 0.9
- IC50 [40]: 0.9 nM
- Drug metabolism [41]: Metabolite_Detected
- Drug metabolism [42]: Metabolite_Detected
